Earlier results on one compound are cited in patent US9675603B2, “Solid pharmaceutical compositions of ppary modulator” (InteKrin Therapeutics, Inc., priority 2010, dated 2017).

Take `O=S(=O)(Nc1cc(Cl)c(Oc2cnc3ccccc3c2)c(Cl)c1)c1ccc(Cl)cc1Cl.O=S(=O)(O)c1ccccc1` [besylate salt of compound 101, 2,4-Dichloro-N-[3,5-dichloro-4-(quinolin-3-yloxy)-phenyl]-benzenesulfonamide benzenesulfonate salt]: the “Stability and hygroscopic properties” value (compared to other salts of compound 101, U.S. Pat. No. 7,223,761 B2) is “superior stability and hygroscopic properties”. In addition, under “in aqueous solvents and in most organic solvents”, the Solubility result was “sparingly soluble”.
